Data: US10202354B2, “Therapeutic compounds and uses thereof” (GENENTECH, INC., priority 2015, dated 2019)

biological target: Full length KDM2B (Homo sapiens (Human), UniProt Q8NHM5); test: KDM2B TR-FRET Assay for Determining Inhibitor IC50; assay type: biochemical; conditions: TR-FRET (HTRF), biotin-H3K36me2 peptide substrate
Text: KDM2B TR-FRET Assay for Determining Inhibitor IC50
The KDM2B TR-FRET Assay described above represents an additional embodiment of the invention.

Full length KDM2B, sequence (Q8NHM5 whole entry): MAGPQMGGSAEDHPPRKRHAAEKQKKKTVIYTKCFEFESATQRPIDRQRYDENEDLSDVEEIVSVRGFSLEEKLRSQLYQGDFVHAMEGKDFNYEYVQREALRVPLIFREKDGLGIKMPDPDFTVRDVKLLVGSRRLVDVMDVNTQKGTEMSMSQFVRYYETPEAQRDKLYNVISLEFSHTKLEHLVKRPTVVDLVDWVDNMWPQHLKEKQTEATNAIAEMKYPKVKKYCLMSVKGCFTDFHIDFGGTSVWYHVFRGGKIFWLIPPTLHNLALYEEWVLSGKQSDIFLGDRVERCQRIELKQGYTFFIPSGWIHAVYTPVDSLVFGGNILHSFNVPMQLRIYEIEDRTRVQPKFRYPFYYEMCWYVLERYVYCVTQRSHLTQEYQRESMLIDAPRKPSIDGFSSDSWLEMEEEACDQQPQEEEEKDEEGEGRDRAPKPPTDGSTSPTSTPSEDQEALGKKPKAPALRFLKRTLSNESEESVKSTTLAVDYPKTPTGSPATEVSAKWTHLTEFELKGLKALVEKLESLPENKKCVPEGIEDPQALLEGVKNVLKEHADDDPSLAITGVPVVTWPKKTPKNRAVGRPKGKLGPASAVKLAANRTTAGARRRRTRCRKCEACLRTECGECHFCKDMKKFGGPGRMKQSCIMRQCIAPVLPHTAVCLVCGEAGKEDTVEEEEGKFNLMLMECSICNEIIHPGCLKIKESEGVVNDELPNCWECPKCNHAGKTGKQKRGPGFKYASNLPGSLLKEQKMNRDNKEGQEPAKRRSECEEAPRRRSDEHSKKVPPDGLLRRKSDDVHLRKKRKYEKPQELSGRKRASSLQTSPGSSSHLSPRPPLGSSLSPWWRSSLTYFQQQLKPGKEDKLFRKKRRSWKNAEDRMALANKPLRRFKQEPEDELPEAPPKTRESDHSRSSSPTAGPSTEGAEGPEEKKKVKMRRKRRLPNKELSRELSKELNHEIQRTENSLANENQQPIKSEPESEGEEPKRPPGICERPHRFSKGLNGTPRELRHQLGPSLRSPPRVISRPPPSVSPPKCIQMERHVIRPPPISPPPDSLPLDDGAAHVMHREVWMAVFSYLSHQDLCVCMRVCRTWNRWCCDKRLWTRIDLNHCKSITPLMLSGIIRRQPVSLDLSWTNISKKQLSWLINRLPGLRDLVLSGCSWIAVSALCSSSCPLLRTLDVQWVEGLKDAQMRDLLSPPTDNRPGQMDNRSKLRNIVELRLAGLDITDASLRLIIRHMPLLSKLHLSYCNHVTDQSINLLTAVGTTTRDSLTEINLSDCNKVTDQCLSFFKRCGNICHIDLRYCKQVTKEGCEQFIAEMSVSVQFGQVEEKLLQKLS

| IC50 [nM] | SMILES |
| --- | --- |
| 0.06 | O=S(=O)(c1ccc(-c2cncnc2)cc1)N1CCN=C1N1CCN(C2CCC2)CC1 [Example 30, 5-[4-[[2-(4-cyclobutylpiperazin-1-yl)-4,5-dihydroimidazol-1-yl]sulfonyl]phenyl]pyrimidine] |
| 1.66 | CCN1CCN(C2=NCCN2S(=O)(=O)c2ccc(OC(F)(F)F)cc2)CC1 [Example 102, 1-ethyl-4-[1-[4-(trifluoromethoxy)phenyl]sulfonyl-4,5-dihydroimidazol-2-yl]piperazine] |
| 8.51 | CCN1CCN(C2=NCCN2S(=O)(=O)c2ccccc2OC(F)(F)F)CC1 [Example 33, 1-ethyl-4-[1-[2-(trifluoromethoxy)phenyl]sulfonyl-4,5-dihydroimidazol-2-yl]piperazine] |
| 11.5 | COc1ccccc1C(=O)N1CCN=C1N1CCN(C2CCC2)CC1 [Example 91, [2-(4-cyclobutylpiperazin-1-yl)-4,5-dihydroimidazol-1-yl]-(2-methoxyphenyl)methanone] |
| 2.7 | Cc1ccc(C(=O)N2CCN=C2N2CCN(C3CCC3)CC2)cc1 [Example 84, [2-(4-cyclobutylpiperazin-1-yl)-4,5-dihydroimidazol-1-yl]-(p-tolyl)methanone] |
| 1.02 | CCN1CCN(C2=NCCN2S(=O)(=O)c2c(Cl)cccc2Cl)CC1 [Example 118, 1-[1-(2,6-dichlorophenyl)sulfonyl-4,5-dihydroimidazol-2-yl]-4-ethyl-piperazine] |
| 9.81 | CCN1CCN(C2=NCCN2S(=O)(=O)c2ccccc2C#N)CC1 [Example 112, 2-[[2-(4-ethylpiperazin-1-yl)-4,5-dihydroimidazol-1-yl]sulfonyl]benzonitrile] |
| 2.21 | O=C(c1ccc(Cl)cc1)N1CCN=C1N1CCN(C2CCC2)CC1 [Example 88, (4-chlorophenyl)-[2-(4-cyclobutylpiperazin-1-yl)-4,5-dihydroimidazol-1-yl]methanone] |
| 0.049 | Cn1nccc1-c1ccc(S(=O)(=O)N2CCN=C2N2CCN(C3CCC3)CC2)cc1 [Example 29, 1-cyclobutyl-4-[1-[4-(2-methylpyrazol-3-yl)phenyl]sulfonyl-4,5-dihydroimidazol-2-yl]piperazine] |
| 6.99 | CCN1CCN(C2=NCCN2S(=O)(=O)c2cccc(C(F)(F)F)c2)CC1 [Example 103, 1-ethyl-4-[1-[3-(trifluoromethyl)phenyl]sulfonyl-4,5-dihydroimidazol-2-yl]piperazine] |
| 0.034 | O=S(=O)(c1ccc(-c2cccc(O)c2)cc1)N1CCN=C1N1CCN(C2CCC2)CC1 [Example 16, 3-[4-[[2-(4-cyclobutylpiperazin-1-yl)-4,5-dihydroimidazol-1-yl]sulfonyl]phenyl]phenol] |
| 0.86 | CC1CC(N2CCN(C3=NCCN3S(=O)(=O)c3ccc(C(C)C)cc3)CC2)C1 (stereo not shown) [Example 39, 1-[1-(4-isopropylphenyl)sulfonyl-4,5-dihydroimidazol-2-yl]-4-(3-methylcyclobutyl)piperazine] |
| 0.084 | O=S(=O)(c1ccc(-c2ccccc2Cl)cc1)N1CCN=C1N1CCN(C2CCC2)CC1 [Example 21, 1-[1-[4-(2-chlorophenyl)phenyl]sulfonyl-4,5-dihydroimidazol-2-yl]-4-cyclobutyl-piperazine] |
| 3.07 | Cc1ccccc1C(=O)N1CCN=C1N1CCN(C2CCC2)CC1 [Example 83, [2-(4-cyclobutylpiperazin-1-yl)-4,5-dihydroimidazol-1-yl]-(o-tolyl)methanone] |
| 3.31 | CCN1CCN(C2=NCCN2S(=O)(=O)c2ccc(OC(F)F)cc2)CC1 [Example 105, 1-[1-[4-(difluoromethoxy)phenyl]sulfonyl-4,5-dihydroimidazol-2-yl]-4-ethyl-piperazine] |
| 12.8 | CCN1CCN(C2=NCCN2S(=O)(=O)c2c(F)cccc2F)CC1 [Example 108, 1-[1-(2,6-difluorophenyl)sulfonyl-4,5-dihydroimidazol-2-yl]-4-ethyl-piperazine] |
| 0.38 | O=S(=O)(c1ccc(-c2ccc(C(F)(F)F)cc2)cc1)N1CCN=C1N1CCN(C2CCC2)CC1 [Example 12, 1-cyclobutyl-4-[1-[4-[4-(trifluoromethyl)phenyl]phenyl]sulfonyl-4,5-dihydroimidazol-2-yl]piperazine] |
| 2.23 | O=C(c1ccccc1Cl)N1CCN=C1N1CCN(C2CCC2)CC1 [Example 87, (2-chlorophenyl)-[2-(4-cyclobutylpiperazin-1-yl)-4,5-dihydroimidazol-1-yl]methanone] |
| 11.4 | CCN1CCN(C2=NCCN2S(=O)(=O)c2cnn(CC)c2C)CC1 [Example 119, 1-ethyl-4-[1-(1-ethyl-5-methyl-pyrazol-4-yl)sulfonyl-4,5-dihydroimidazol-2-yl]piperazine] |
| 2.81 | CCN1CCN(C2=NCCN2S(=O)(=O)c2ccccc2Cl)CC1 [Example 114, 1-[1-(2-chlorophenyl)sulfonyl-4,5-dihydroimidazol-2-yl]-4-ethyl-piperazine] |

| IC50 [nM] | SMILES |
| --- | --- |
| 0.048 | O=S(=O)(c1ccc(-c2ccccc2)cc1)N1CCN=C1N1CCN(C2CCC2)CC1 [Example 14, 1-cyclobutyl-4-[1-(4-phenylphenyl)sulfonyl-4,5-dihydroimidazol-2-yl]piperazine] |
| 0.049 | CC(C)c1ccc(S(=O)(=O)N2CC3(CCCC3)N=C2N2CCN(C3CCC3)CC2)cc1 [Example 45, 2-(4-cyclobutylpiperazin-1-yl)-3-(4-isopropylphenyl)sulfonyl-1,3-diazaspiro[4.4]non-1-ene] |
| 0.114 | CC(C)c1ccc(S(=O)(=O)N2C[C@H](C)N=C2N2CCN(C3CCC3)CC2)cc1 [Example 47, (S)-1-cyclobutyl-4-[1-(4-isopropylphenyl)sulfonyl-4-methyl-4,5-dihydroimidazol-2-yl]piperazine] |
| 2.83 | CCN1CCN(C2=NCCN2S(=O)(=O)c2ccc(Cl)cc2Cl)CC1 [Example 100, 1-[1-(2,4-dichlorophenyl)sulfonyl-4,5-dihydroimidazol-2-yl]-4-ethyl-piperazine] |
| 0.037 | O=S(=O)(c1ccc(-c2ccccc2O)cc1)N1CCN=C1N1CCN(C2CCC2)CC1 [Example 15, 2-[4-[[2-(4-cyclobutylpiperazin-1-yl)-4,5-dihydroimidazol-1-yl]sulfonyl]phenyl]phenol] |
| 0.027 | O=S(=O)(c1ccc(-c2cccs2)cc1)N1CCN=C1N1CCN(C2CCC2)CC1 [Example 19, 1-cyclobutyl-4-[1-[4-(2-thienyl)phenyl]sulfonyl-4,5-dihydroimidazol-2-yl]piperazine] |
| 0.039 | CC(C)c1ccc(S(=O)(=O)N2C[C@@H](C3CC3)N=C2N2CCN(C3CCC3)CC2)cc1 [Example 41, (R)-1-cyclobutyl-4-(4-cyclopropyl-1-((4-isopropylphenyl)sulfonyl)-4,5-dihydro-1H-imidazol-2-yl)piperazine] |
| 0.138 | O=S(=O)(c1ccc(-c2cccc(F)c2)cc1)N1CCN=C1N1CCN(C2CCC2)CC1 [Example 26, 1-cyclobutyl-4-[1-[4-(3-fluorophenyl)phenyl]sulfonyl-4,5-dihydroimidazol-2-yl]piperazine] |
| 0.094 | CC(=O)Nc1ccc(S(=O)(=O)N2CCN=C2N2CCN(C3CCC3)CC2)cc1 [Example 70, N-[4-[[2-(4-cyclobutylpiperazin-1-yl)-4,5-dihydroimidazol-1-yl]sulfonyl]phenyl]acetamide] |
| 0.043 | CC(C)c1ccc(S(=O)(=O)N2CCN=C2N2CCN(C3CCC3)CC2)cc1 [Example 31, 1-cyclobutyl-4-(1-((4-isopropylphenyl)sulfonyl)-4,5-dihydro-1H-imidazol-2-yl)piperazine] |
| 0.306 | O=S(=O)(c1cc(Cl)cc(Cl)c1)N1CCN=C1N1CCN(C2CCC2)CC1 [Example 62, 1-cyclobutyl-4-[1-(3,5-dichlorophenyl)sulfonyl-4,5-dihydroimidazol-2-yl]piperazine] |
| 3.12 | Cc1cccc(C(=O)N2CCN=C2N2CCN(C3CCC3)CC2)c1 [Example 85, [2-(4-cyclobutylpiperazin-1-yl)-4,5-dihydroimidazol-1-yl]-(m-tolyl)methanone] |
| 0.519 | CCN1CCN(C2=N[C@@H](C)CN2S(=O)(=O)c2ccc(C(C)C)cc2)CC1 [Example 44, (S)-1-ethyl-4-[1-(4-isopropylphenyl)sulfonyl-4-methyl-4,5-dihydroimidazol-2-yl]piperazine] |
| 0.071 | O=S(=O)(c1ccc(-c2ccc(F)cc2)cc1)N1CCN=C1N1CCN(C2CCC2)CC1 [Example 27, 1-cyclobutyl-4-[1-[4-(4-fluorophenyl)phenyl]sulfonyl-4,5-dihydroimidazol-2-yl]piperazine] |
| 0.134 | O=S(=O)(c1ccc(-c2cccc(C(F)(F)F)c2)cc1)N1CCN=C1N1CCN(C2CCC2)CC1 [Example 11, 1-cyclobutyl-4-[1-[4-[3-(trifluoromethyl)phenyl]phenyl]sulfonyl-4,5-dihydroimidazol-2-yl]piperazine] |
| 0.053 | N#Cc1ccccc1-c1ccc(S(=O)(=O)N2CCN=C2N2CCN(C3CCC3)CC2)cc1 [Example 1, 2-[4-[[2-(4-cyclobutylpiperazin-1-yl)-4,5-dihydroimidazol-1-yl]sulfonyl]phenyl]benzonitrile] |
| 0.102 | O=S(=O)(c1ccc(-c2ccccn2)cc1)N1CCN=C1N1CCN(C2CCC2)CC1 [Example 6, 1-cyclobutyl-4-[1-[4-(2-pyridyl)phenyl]sulfonyl-4,5-dihydroimidazol-2-yl]piperazine] |
| 0.492 | CC(C)c1ccc(S(=O)(=O)N2CCN=C2N2CCN(CC3CC3C)CC2)cc1 (stereo not shown) [Example 38, 1-[1-(4-isopropylphenyl)sulfonyl-4,5-dihydroimidazol-2-yl]-4-[(2-methylcyclopropyl)methyl]piperazine] |
| 11.5 | CCN1CCN(C2=NCCN2S(=O)(=O)c2ccc(Cl)c(Cl)c2)CC1 [Example 69, 1-[1-(3,4-dichlorophenyl)sulfonyl-4,5-dihydroimidazol-2-yl]-4-ethyl-piperazine] |
| 0.054 | CC(C)c1ccc(S(=O)(=O)N2C[C@@H](C)N=C2N2CCN(C3CCC3)CC2)cc1 [Example 46, (R)-1-cyclobutyl-4-[1-(4-isopropylphenyl)sulfonyl-4-methyl-4,5-dihydroimidazol-2-yl]piperazine] |
